Read-outs that look alike come from different tables or passages of the source.
Test system: panel of 55 breast cancer cell lines
Test: Cell growth inhibition assay (Cell Titer Glo, 72 h, 9 doses; GI50, TGI, LC50)
Format: cell-based, human
Settings: Homo sapiens, read-out: GI50 (converted)

With COc1cccc2c1C(=O)c1c(O)c3c(c(O)c1C2=O)C[C@@](O)(C(=O)CO)C[C@@H]3O[C@H]1C[C@H](N)[C@@H](O)[C@H](C)O1 [Epirubicin] the GI50 (600MPE cell line, censored GI50 values) was 347 nM, the GI50 (AU565, AU565 cell line, censored GI50 values) was 145 nM and the GI50 (AU565, cell line AU565) was 145 nM. It also gave a GI50 (BT-474, BT474 cell line, censored GI50 values) of 6760 nM, a GI50 (BT-474, cell line BT474) of 6760 nM and a GI50 (BT-483, BT483 cell line, censored GI50 values) of 166 nM. It also gave a GI50 (BT-483, cell line BT483) of 166 nM, a GI50 (BT-549, BT549 cell line, censored GI50 values) of 204 nM and a GI50 (BT-549, cell line BT549) of 204 nM. The GI50 (HCC38, HCC38 cell line, censored GI50 values) was 93.3 nM, the GI50 (HCC38, cell line HCC38) was 93.3 nM and the GI50 (HCC70, HCC70 cell line, censored GI50 values) was 417 nM. It also gave a GI50 (HCC70, cell line HCC70) of 417 nM, a GI50 (HCC202, HCC202 cell line, censored GI50 values) of 603 nM and a GI50 (HCC202, cell line HCC202) of 603 nM. For the same compound, the GI50 (HCC1143, HCC1143 cell line, censored GI50 values) was 288 nM, the GI50 (HCC1143, cell line HCC1143) was 288 nM and the GI50 (HCC1187, HCC1187 cell line, censored GI50 values) was 1000 nM. The GI50 (HCC1187, cell line HCC1187) was 1000 nM, the GI50 (HCC1395, HCC1395 cell line, censored GI50 values) was 447 nM and the GI50 (HCC1395, cell line HCC1395) was 447 nM. It also gave a GI50 (HCC1419, HCC1419 cell line, censored GI50 values) of 708 nM, a GI50 (HCC1419, cell line HCC1419) of 708 nM and a GI50 (HCC1428, HCC1428 cell line, censored GI50 values) of 1350 nM. For the same compound, the GI50 (HCC1428, cell line HCC1428) was 1350 nM, the GI50 (HCC1500, HCC1500 cell line, censored GI50 values) was 245 nM and the GI50 (HCC1500, cell line HCC1500) was 245 nM. For the same compound, the GI50 (HCC1806, HCC1806 cell line, censored GI50 values) was 166 nM, the GI50 (HCC1806, cell line HCC1806) was 166 nM and the GI50 (HCC1937, HCC1937 cell line, censored GI50 values) was 204 nM. It also gave a GI50 (HCC1937, cell line HCC1937) of 204 nM, a GI50 (HCC1954, HCC1954 cell line, censored GI50 values) of 200 nM and a GI50 (HCC1954, cell line HCC1954) of 200 nM. For the same compound, the GI50 (HCC2185 cell line, censored GI50 values) was 126 nM, the GI50 (HCC3153 cell line, censored GI50 values) was 646 nM and the GI50 (LY2 cell line, censored GI50 values) was 214 nM. The GI50 (MCF7, MCF7 cell line, censored GI50 values) was 355 nM, the GI50 (MCF7, cell line MCF7) was 355 nM and the GI50 (MDA-MB-134-VI, MDAMB134VI cell line, censored GI50 values) was 1050 nM. It also gave a GI50 (MDA-MB-157, MDAMB157 cell line, censored GI50 values) of 550 nM, a GI50 (MDA-MB-157, cell line MDAMB157) of 550 nM and a GI50 (MDA-MB-175-VII, MDAMB175VII cell line, censored GI50 values) of 100 nM. For the same compound, the GI50 (MDA-MB-231, MDAMB231 cell line, censored GI50 values) was 269 nM, the GI50 (MDA-MB-231, cell line MDAMB231) was 269 nM and the GI50 (MDA-MB-361, MDAMB361 cell line, censored GI50 values) was 224 nM. It also gave a GI50 (MDA-MB-361, cell line MDAMB361) of 224 nM, a GI50 (MDA-MB-415, MDAMB415 cell line, censored GI50 values) of 263 nM and a GI50 (MDA-MB-415, cell line MDAMB415) of 263 nM. For the same compound, the GI50 (MDA-MB-436, MDAMB436 cell line, censored GI50 values) was 708 nM, the GI50 (MDA-MB-436, cell line MDAMB436) was 708 nM and the GI50 (MDA-MB-453, MDAMB453 cell line, censored GI50 values) was 224 nM. The GI50 (MDA-MB-453, cell line MDAMB453) was 224 nM, the GI50 (MDA-MB-468, MDAMB468 cell line, censored GI50 values) was 692 nM and the GI50 (MDA-MB-468, cell line MDAMB468) was 692 nM. For the same compound, the GI50 (SUM52PE, SUM52PE cell line, censored GI50 values) was 295 nM, the GI50 (SUM52PE, cell line SUM52PE) was 295 nM and the GI50 (SUM149PT, SUM149PT cell line, censored GI50 values) was 219 nM. For the same compound, the GI50 (SUM149PT, cell line SUM149PT) was 219 nM, the GI50 (SUM185PE, SUM185PE cell line, censored GI50 values) was 407 nM and the GI50 (SUM185PE, cell line SUM185PE) was 407 nM. For the same compound, the GI50 (SUM1315MO2, SUM1315MO2 cell line, censored GI50 values) was 36.3 nM, the GI50 (SUM-159-PT, SUM159PT cell line, censored GI50 values) was 141 nM and the GI50 (SUM-159-PT, cell line SUM159PT) was 141 nM. The GI50 (UACC-812, UACC812 cell line, censored GI50 values) was 251 nM, the GI50 (UACC-812, cell line UACC812) was 251 nM and the GI50 (UACC-893, UACC893 cell line, censored GI50 values) was 776 nM. For the same compound, the GI50 (UACC-893, cell line UACC893) was 776 nM, the GI50 (ZR-75-1, ZR751 cell line, censored GI50 values) was 251 nM and the GI50 (ZR-75-1, cell line ZR751) was 251 nM. The GI50 (ZR-75B, ZR75B cell line, censored GI50 values) was 115 nM, the GI50 (ZR-75B, cell line ZR75B) was 115 nM and the GI50 (cell line 600MPE) was 347 nM. For the same compound, the GI50 (cell line HCC2185) was 126 nM, the GI50 (cell line HCC3153) was 646 nM and the GI50 (cell line LY2) was 214 nM. It also gave a GI50 (cell line MDAMB134V) of 1050 nM, a GI50 (cell line MDAMB175V) of 100 nM and a GI50 (cell line SUM1315MO) of 36.3 nM.
